Legend:
HCV replicon genotype 1a = test: Cell-based HCV replicon assay, genotype 1a; conditions: Hepatitis C virus, 72 h, HCV replicon cells, replicon RNA by real time PCR on day 3, read-out: EC50 (nM) (gt1a)
Method: (§1) To measure cell-based anti-HCV activity of selected compounds of the present invention, replicon cells were seeded at 5000 cells/well in 96-well collagen I-coated Nunc plates in the presence of the test compound. Various concentrations of test compound, typically in 10 serial 2-fold dilutions, were added to the assay mixture, with the starting concentration ranging from 250 μM to 1 μM. The final concentration of DMSO was 0.5%, fetal bovine serum was 5%, in the assay media. Cells were harvested on day 3 by the addition of 1× cell lysis buffer (Ambion cat #8721). The replicon RNA level was measured using real time PCR (Taqman assay). The amplicon was located in 5B. The PCR primers were: 5B.2F, ATGGACAGGCGCCCTGA (SEQ. ID NO. 1); 5B.2R, […] (SEQ. ID NO. 2); the probe sequence was FAM-labeled CACGCCATGCGCTGCGG (SEQ. ID NO. 3). GAPDH RNA was used as endogenous control and was amplified in the same reaction as NS5B (multiplex PCR) using primers and VIC-labeled probe recommended by the manufacturer (PE Applied Biosystem). The real-time RT-PCR reactions were run on ABI PRISM 7900HT Sequence Detection System using the following program: 48° C. for 30 min, 95° C. for 10 min, 40 cycles of 95° C. for 15 sec, 60° C. for 1 min. The ACT values (CT5B-CTGAPDH) were plotted against the concentration of test compound and fitted to the sigmoid dose-response model using XLfit4 (MDL). EC50 was defined as the concentration of inhibitor necessary to achieve ΔCT=1 over the projected baseline; EC90 the concentration necessary to achieve ΔCT=3.2 over the baseline. Alternatively, to quantitate the absolute amount of replicon RNA, a standard curve was established by including serially diluted T7 transcripts of replicon RNA in the Taqman assay. All Taqman reagents were from PE Applied Biosystems. Such an assay procedure was described in detail in e.g. Malcolm et al., Antimicrobial Agents and Chemotherapy 50: 1013-1020 (2006).
(§2) HCV replicon assay data was calculated for genotypes 1a, 1b, 2a and 3a for selected compounds of the present invention using this method and is provided in the table below.

HCV replicon genotype 2a = test: Cell-based HCV replicon assay, genotype 2a; conditions: Hepatitis C virus, 72 h, HCV replicon cells, replicon RNA by real time PCR on day 3, read-out: EC50 (nM) (gt2a)
Method: as §1, §2

HCV replicon genotype 3a = test: Cell-based HCV replicon assay, genotype 3a; conditions: Hepatitis C virus, 72 h, HCV replicon cells, replicon RNA by real time PCR on day 3, read-out: EC50 (nM) (gt3a)
Method: To measure cell-based anti-HCV activity of selected compounds of the present invention, replicon cells were seeded at 5000 cells/well in 96-well collagen I-coated Nunc plates in the presence of the test compound. Various concentrations of test compound, typically in 10 serial 2-fold dilutions, were added to the assay mixture, with the starting concentration ranging from 250 μM to 1 μM. The final concentration of DMSO was 0.5%, fetal bovine serum was 5%, in the assay media. Cells were harvested on day 3 by the addition of 1× cell lysis buffer (Ambion cat #8721). The replicon RNA level was measured using real time PCR (Taqman assay). The amplicon was located in 5B. The PCR primers were: 5B.2F, ATGGACAGGCGCCCTGA (SEQ. ID NO. 1); 5B.2R, […] (SEQ. ID NO. 2); the probe sequence was FAM-labeled CACGCCATGCGCTGCGG (SEQ. ID NO. 3). GAPDH RNA was used as endogenous control and was amplified in the same reaction as NS5B (multiplex PCR) using primers and VIC-labeled probe recommended by the manufacturer (PE Applied Biosystem). […] Alternatively, to quantitate the absolute amount of replicon RNA, a standard curve was established by including serially diluted T7 transcripts of replicon RNA in the Taqman assay. […]
as §2

HCV replicon genotype 1b = test: Cell-based HCV replicon assay, genotype 1b; conditions: Hepatitis C virus, 72 h, HCV replicon cells, replicon RNA by real time PCR on day 3, read-out: EC50 (nM) (gt1b)
Method: as §1, §2

Structure (SMILES)	EC50 (HCV replicon genotype 1a) [nM]	EC50 (HCV replicon genotype 2a) [nM]	EC50 (HCV replicon genotype 3a) [nM]	EC50 (HCV replicon genotype 1b) [nM]
COC(=O)N[C@H](C(=O)N1CCC[C@H]1c1ncc(-c2ccc3cc4cc(-c5cnc([C@@H]6CCCN6C(=O)[C@@H](NC(=O)OC)C(C)C)[nH]5)ccc4cc3c2)[nH]1)C(C)C [Compound 36]	0.001	0.039	0.01	
COC(=O)N[C@H](C(=O)N1CCC[C@H]1c1ncc(-c2ccc3nc4cc(-c5cnc([C@@H]6CCCN6C(=O)[C@@H](NC(=O)OC)C(C)C)[nH]5)ccc4cc3c2)[nH]1)C(C)C [Compound 37]	0.047	0.71	0.04	0.001
COC(=O)N[C@H](C(=O)N1CCC[C@H]1c1ncc(-c2ccc3nc4cc(-c5cnc([C@@H]6CCCN6C(=O)[C@@H](NC(=O)OC)C(C)C)[nH]5)ccc4nc3c2)[nH]1)C(C)C [Compound 38]	0.035			0.015
COC(=O)N[C@H](C(=O)N1CCC[C@H]1c1ncc(-c2cc3cc4oc(-c5cnc([C@@H]6CCCN6C(=O)[C@@H](NC(=O)OC)C(C)C)[nH]5)cc4cc3o2)[nH]1)C(C)C [Compound 39]	0.02	0.05		0.001
